Experimental data from the supplement of paper PMC10331698.
± gives the standard deviation of the averaged measurements.

How the values were obtained:
Experiment in all cases: level (log10 ratio to DMSO vehicle control); higher = higher biomarker level / cell amount than vehicle control
[1] = compound: O=C(O)C=C(C(F)(F)F)C(F)(F)F [3,3-Bis(trifluoromethyl)-2-propenoic acid] (in DMSO)
Procedure: (§1)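 BioMAP Diversity Plus panel of 12 human primary cell co-culture systems (3C, 4H, LPS, SAg, BT, BF4T, BE3C, CASM3C, HDF3CGF, KF3CT, MyoF, Mphg). Compounds were added 1 h before stimulation and left for 24 h (MyoF 48 h; BT 72 h for soluble read-outs or 6 d for IgG). Biomarkers were read by ELISA, cytotoxicity by SRB, PBMC viability and proliferation by Alamar Blue. Each well value was divided by the mean of 8 DMSO control wells on the same plate and log10 transformed; duplicate blinded samples were tested at 4 concentrations.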

[2] = compound: O=C(O)CCC(F)(C(F)(F)F)C(F)(F)F [4,4-bis(Trifluoromethyl)-4-fluoropropanoic acid] (in DMSO)
Procedure: as §1

[3] = compound: O=C(O)C(F)(F)C(F)(F)C(F)(F)OC(F)(F)F [Perfluoro(4-methoxybutanoic) acid] (in DMSO)
Procedure: as §1

[4] = compound: OCCC(F)(F)C(F)(F)C(F)(F)C(F)(F)F [4:2 Fluorotelomer alcohol] (in DMSO)
Procedure: as §1

[5] = compound: O=C(O)C(F)(OC(F)(F)C(F)(OC(F)(F)C(F)(OC(F)(F)C(F)(F)C(F)(F)F)C(F)(F)F)C(F)(F)F)C(F)(F)F [Perfluoro-(2,5,8-trimethyl-3,6,9-trioxadodecanoic)acid] (in DMSO)
Procedure: as §1

[6] = compound: OCC(F)(F)C(F)(F)C(F)(F)C(F)(F)C(F)(F)C(F)(F)CO [1H,1H,8H,8H-Perfluorooctane-1,8-diol] (in DMSO)
Procedure: as §1

| Test System | level (log10) ([1]; 6700 nM) | level (log10) ([1]; 20000 nM) | level (log10) ([1]; 60000 nM) | level (log10) ([2]; 6700 nM) | level (log10) ([2]; 20000 nM) | level (log10) ([2]; 60000 nM) | level (log10) ([3]; 6700 nM) | level (log10) ([3]; 20000 nM) | level (log10) ([3]; 60000 nM) | level (log10) ([4]; 6700 nM) | level (log10) ([4]; 20000 nM) | level (log10) ([4]; 60000 nM) | level (log10) ([5]; 1100 nM) | level (log10) ([5]; 3300 nM) | level (log10) ([5]; 10000 nM) | level (log10) ([6]; 6700 nM) | level (log10) ([6]; 20000 nM) | level (log10) ([6]; 60000 nM) |
| --- | --- | --- | --- | --- | --- | --- | --- | --- | --- | --- | --- | --- | --- | --- | --- | --- | --- | --- |
| CASM3C:HLA-DR | -0.121 ± 0.0028 | -0.167 ± 0.0085 | -0.181 ± 0.067 | -0.035 ± 0.0014 | -0.0285 ± 0.012 | 0.0035 ± 0.012 | -0.016 ± 0.014 | -0.006 ± 0.023 | -0.0095 ± 0.00071 | -0.0195 ± 0.049 | -0.022 ± 0.028 | 0.002 ± 0.037 | 0.0045 ± 0.019 | -0.004 ± 0.0028 | 0.0165 ± 0.012 | -0.0005 ± 0.018 | -0.026 ± 0.016 | -0.014 ± 0.014 |
| CASM3C:SRB | 0.0145 ± 0.016 | -0.0075 ± 0.0021 | -0.027 | -0.007 ± 0.0014 | -0.0005 ± 0.0078 | -0.0025 ± 0.0035 | -0.001 ± 0.0014 | -0.001 ± 0.0028 | -0.0045 ± 0.011 | 0.0045 ± 0.0035 | -0.008 | 0.0015 ± 0.0092 | 0.0035 ± 0.005 | -0.006 ± 0.0071 | 0.0005 ± 0.0035 | -0.001 ± 0.0085 | -0.001 ± 0.0085 | -0.007 ± 0.011 |
| MyoF:CD106/VCAM-1 | -0.0825 ± 0.00071 | -0.145 ± 0.0021 | -0.291 ± 0.04 | -0.0065 ± 0.0078 | -0.0095 ± 0.026 | -0.0045 ± 0.015 | -0.0175 ± 0.0021 | -0.0205 ± 0.0092 | -0.018 ± 0.016 | -0.0275 ± 0.0078 | -0.024 ± 0.0042 | -0.0225 ± 0.064 | 0 ± 0.0028 | -0.0035 ± 0.0092 | 0.013 ± 0.0099 | -0.0045 ± 0.0035 | 0.0105 ± 0.0021 | 0.0295 ± 0.011 |
| CASM3C:CD87/uPAR | -0.0235 ± 0.023 | -0.029 ± 0.031 | -0.031 ± 0.023 | 0.027 ± 0.0028 | 0.0265 ± 0.013 | 0.03 ± 0.024 | -0.0135 ± 0.04 | -0.0095 ± 0.0092 | -0.0255 ± 0.016 | 0.0005 ± 0.023 | 0.007 ± 0.013 | -0.003 ± 0.021 | 0.0175 ± 0.022 | 0.0015 ± 0.018 | 0.0265 ± 0.0035 | 0.0025 ± 0.0021 | -0.0325 ± 0.0092 | -0.036 ± 0.038 |
